Laboratory results as given in patent US20200368205A1, “METHODS AND COMBINATION THERAPY TO TREAT CANCER” (ARRAY BIOPHARMA INC., priority 2018, published 2020).

Tests used:
[1] = test system: melanoma cell lines; assay: MHC class I expression across the panel of eight melanoma cell lines; format: cell-based, human
Method: (§1) The goal of this study was to measure the effects of binimetinib on cell surface MHC class I expression in various melanoma cell lines. In this study, eight melanoma cell lines were evaluated: MEL-JUSO (NRAS Q61L mutation), IPC-298 (NRAS Q61L mutation), A375 (BRAF V600E, homozygous mutation), HS936.T (NRAS Q61K mutation and BRAF N581K mutation), MM485 (NRAS Q61R mutation), SK-MEL-2 (NRAS Q61R mutation), MM415 (NRAS Q61L mutation), Malme-3M (BRAF V600E, heterozygous mutation). The cells lines were seeded into flat bottom 96-well tissue culture plates at a density of 5000 cells per well and allowed to adhere overnight. The following day cells were treated with vehicle control (0.25% DMSO) or varying dilutions of Binimetinib (0.7 nM-25000 nM) for 1 hour. Cells were then treated with vehicle control or 100 ng/ml IFNgamma (R&D systems) for 72 hours. Cells were washed, trypsinized, and stained with Alexa Fluor® 647 anti-human HLA-A,B,C antibody (W6/32, eBioscience) and analyzed on a BD FACSCanto II flow cytometer. An IFNg titration and time course were performed for assay optimization. Maximal induction of MHC class I expression was seen ˜100 ng/mL of IFNγ (see, e.g., FIGS. 1 and 2).

[2] = test system: KRas mutant CT26 syngeneic tumors; assay: Growth of KRas mutant CT26 murine colon syngeneic tumors; format: in vivo; conditions: for Cures (day 61): animals with no palpable tumor at study end
Method: (§2) 1% CMC/0.5% Tween-80 (CMCT) was prepared by adding 960 mL of distilled water to a 1000 mL Pyrex® glass bottle with a stir bar in the bottom, and was used as the oral vehicle. The water was warmed to 50-60° C. then 5 mL Tween® 80 (polyoxyethylenesorbitan monooleate, Sigma P2287, batch #054K0154) and 15.6 mL benzyl alcohol (Sigma 402834, Batch #00296PK) added. Carboxymethylcellulose (5 g, CMC, low viscosity, Sigma C5678, Batch #033K0008) was added slowly, over one hour. The solution was stirred until the CMC dissolved and the solution was clear. 30 mg/kg MEK162 (Binimetinib, 100% active) was prepared as a white, homogeneous suspension in CMCT. MEK162 was administered in 10 mL/kg and dosed at 30 mg/kg (3.0 mg/mL) by oral gavage. To prepare, dry test compound (90 mg) was weighed and 30 mL CMCT added. Dose suspension was sonicated until a fine suspension was achieved (˜15 min). Final dose suspension was stored at 4° C. during live phase and sonicated to resuspend prior to dose administration. Dose suspension was prepared every 4-5 days or as needed. 100 μg αPD-1 RMP1-14, Rat IgG2a isotype (BioXCell cat.no. BP0146, lot #5792×2/1015)−7.12 mg/mL stock concentration. RMP1-14 was prepared by dilution of 0.843 stock solution with 5.157 mL sterile saline for injection. The antibody was administered at 100 μg/animal (100 μL of a 1 mg/mL dose solution) by intraperitoneal injection.
(§3) Male BALB/c mice from Charles River (Wilmington, Mass.) were obtained at 6-8 weeks of age and housed in groups of 5. Following a two week acclimation period, a suspension of 1×10^5 cells in a volume of 100 μL saline was implanted subcutaneously on the right flank of the animal near the axillary region. Animals were then randomly assigned to treatment groups. Treatment was initiated on day 4 after CT26 tumor cell inoculation to allow for a sufficient treatment window. MEK162 was administered once daily (QD) for 14 consecutive days by oral gavage (PO) at 30 mg/kg and anti-PD1 antibody was administered twice weekly by intraperitoneal injection (IP) (Table 4).
(§4) The combination was evaluated as concomitant administration or sequential where MEK162 treatment was initiated at the time that tumor resistance from anti-PD1 treatment emerged. For the sequential treatment group, animals were enrolled in MEK162 treatment when tumors reached 350-400 mm^3 after anti-PD1 antibody therapy was initiated.
Animals were monitored for tumor growth and body weight 2-3 times per week based on outgrowth kinetics. Tumor diameter was measured with digital calipers, and the tumor volume in mm^3 was calculated by the formula: Volume=((width)^2×length)/2. […] Animals were removed from study if found moribund or if tumor volume exceeded 1400 mm^3. At that time, tumor tissue was harvested and frozen for later analysis of T-cell clonality by immune sequencing (Adaptive Biotech, San Diego, Calif.). Food, water, temperature and humidity were according to Pharmacology Testing Facility performance standards (SOP's) which are in accordance with the 1996 Guide for the Care and Use of Laboratory Animals (NRC) and AAALAC-International.
The murine CT26 cell line (a.k.a. Colon 26 or Colon Tumor #26) was developed in 1975 by exposing BALB/c mice to N-nitroso-N-methylurethane-(NNMU) (Corbett et al., 1975). The undifferentiated colon carcinoma cell line with fibroblast morphology was isolated from BALB/c mice. Extensive genomics, immune phenotyping and therapeutic background are available on this cell line (information summarized from Bhadury et al., 2013, Castle et al., 2014). The cell line is reported to harbor a KRas G12D mutation and the in-house cell line was sequenced and found to match the reported mutation (BGI, Cambridge, Mass.). Literature reports expression of MHC class I but not II and a mutational load of 1688 non-synonymous point mutations; 154 are both in expressed genes and in peptides predicted to bind MHC. […]

[3] = test system: Cloudman S91 tumors; assay: Growth of Cloudman S91 melanoma tumors; format: in vivo
[4] = test system: IPC298 (NRAS Q61L) cells; assay: MHC class I cell surface expression, flow cytometry; format: cell-based, human; conditions: 72 hours
Method: as §1

[5] = test system: A375 (BRAF V600E) cells; assay: as above; format: cell-based, human; conditions: 72 hours
Method: as §1

[6] = test system: SKMEL-2 (NRAS Q61R) cells; assay: as above; format: cell-based, human; conditions: 72 hours
Method: as §1

[7] = test system: MELJUSO (NRAS Q61L) cells; assay: as above; format: cell-based, human; conditions: for Maximal Fold Increase in MHC Class I Expression: MELJUSO (NRAS Q61L), 72 hours
Method: as §1

[8] = test system: HS936.T (NRAS Q61K, BRAF N581K) cells; assay: as above; format: cell-based, human; conditions: 72 hours
Method: as §1

[9] = test system: Malme-3M (BRAF V600E) cells; assay: as above; format: cell-based, human; conditions: 72 hours
Method: as §1

[10] = test system: MM415 (NRAS Q61L) cells; assay: as above; format: cell-based, human; conditions: 72 hours
Method: as §1

[11] = test system: MM485 (NRAS Q61R) cells; assay: as above; format: cell-based, human; conditions: 72 hours
Method: as §1

[12] = test system: RENCA tumors; assay: Growth of RENCA renal carcinoma tumors in retired mice; format: in vivo
Method: as §2, with “The water was warmed to 50-60° C. then 5 mL Tween® 80 (polyoxyethylenesorbitan monooleate, Sigma P2287, batch #054K0154) and 15.6 mL benzyl alcohol (Sigma 402834, Batch #00296PK) added.” left out, “100 μg αPD-1 RMP1-14, Rat IgG2a isotype (BioXCell cat.no. BP0146, lot #5792×2/1015)−7.12 mg/mL stock concentration. RMP1-14 was prepared by dilution of 0.843 stock solution with 5.157 mL sterile saline for injection.” left out
as §3, §4
(§5) Animals were monitored for tumor growth and body weight 2-3 times per week based on outgrowth kinetics. Tumor diameter was measured with digital calipers, and the tumor volume in mm^3 was calculated by the formula: Volume=((width)^2×length)/2. TGI was calculated on day 15. Animals were removed from study if found moribund or if tumor volume exceeded 1400 mm^3. At that time, tumor tissue was harvested and frozen for later analysis of T-cell clonality by immune sequencing (Adaptive Biotech, San Diego, Calif.).
Survival defined as morbidity, mortality or tumor size exceeding 1400 mm3. […] Cures: Animals with no palpable tumor at the end of the study were scored as cures. Maximum % Body Weight Loss (% BWL): % BWL=100(1−BWt/BW0); BW0 is group mean body weight at study start and BWt is group mean or median body weight on day where maximal body weight loss is observed. Tx-Related Deaths: Death occurring during live phase specifically due to drug administration and not attributable to other causes (e.g. gavage trauma, tumor-related morbidity, etc.)
For mice that were injected subcutaneously with RENCA cells, retired female breeders were used (23 weeks old). 200 μg of αPD-1 was administered on days 1, 4, 8 and 11.

[13] = test system: B16F10 tumors; assay: Growth of B16F10 melanoma tumors; format: in vivo
Method: [The procedure below names another cell line; the source lists this cell line under the same test.] as §2, §3, §4
as §5, with “Calif.). […]” for “Calif.).”
The mean values for tumor volume and body weight by study day for each experimental group were plotted including error bars for the standard error of the mean. % Tumor Growth Inhibition (% TGI): % TGI=100(1−Wt/Wc); Wt is the mean tumor volume of the treated group on day X; We is the mean tumor volume of controls on day X, where X is the last day that the control group is available in its entirety. […] Cures: Animals with no palpable tumor at the end of the study were scored as cures. […]

[14] = Binimetinib steady state exposure quoted in figure legends; conditions: total

IFNγ: IFNgamma (R&D systems) used to induce MHC class I expression
IFNγ concentration giving maximal induction of MHC class I expression ([1]; IFNg titration, 72-hour treatment, FIGS. 1 and 2 (A375, SKMEL-2)): ~100 ng/mL

Cn1cnc2c(F)c(Nc3ccc(Br)cc3F)c(C(=O)NOCCO)cc21 [Binimetinib, 6-(4-bromo-2-fluorophenylamino)-7-fluoro-3-methyl-3H-benzoimidazole-5-carboxylic acid (2-hydroxyethoxy)-amide]
melanoma cell lines with increased MHC class I cell surface expression ([1]; binimetinib alone, eight melanoma cell lines): 6 of 8
fold increase in MHC class I cell surface expression ([1]; binimetinib alone, in 6 of 8 melanoma cell lines): 1.5-3 fold
fold increase of IFNg-induced MHC class I ([1]; with IFNg, all tested cell lines): 1.5-4 fold
Deaths ([2]; BALB/c mice): 0/10
% TGI (Day 13) ([2]; BALB/c mice, MEK162 30 mg/kg PO QD x14, anti-PD1 100 μg IP D 1, 4, 8, 11): 43%
% TGI (Day 13) ([2]; BALB/c mice, MEK162 30 mg/kg PO QD x14, anti-PD1 100 μg IP D 1, 4, 8, 11, 30 mg/kg): 43%
Max % BWL ([2]; BALB/c mice, maximum body weight loss): 0.6%
Median Survival ([2]; BALB/c mice, vehicle 18 days): 26 days
Cures (day 61) [2]: 0/10
Cures (day 61) ([2]; listed as MEK162): no cures
Cures (day 44) [3]: 0/10
Deaths [3]: 0/10
% TGI (day 8) ([3]; DBA/2 mice, binimetinib 30 mg/kg, anti-PD-1 100 μg): −17%
Max % BWL ([3]; vehicle 12.4): 4.8%
Median Survival ([3]; vehicle 13): 11
Maximal Fold Increase in MHC Class I Expression ([4]; +IFNg 100 ng/ml): 3 fold
Maximal Fold Increase in MHC Class I Expression ([4]; −IFNg): 2 fold
Maximal Fold Increase in MHC Class I Expression ([5]; +IFNg 100 ng/ml): 4 fold
Maximal Fold Increase in MHC Class I Expression ([5]; −IFNg): 2 fold
Maximal Fold Increase in MHC Class I Expression ([6]; +IFNg 100 ng/ml): 1.5 fold
Maximal Fold Increase in MHC Class I Expression ([6]; −IFNg): 2 fold
increase in MHC class I expression ([7]; MELJUSO (NRAS Q61L) cells, binimetinib alone, FIG. 5A): 2.5 fold
enhancement of IFNγ-induced MHC class I expression ([7]; MELJUSO (NRAS Q61L) cells, in the presence of 100 ng/mL IFNg): 4-5 fold
Maximal Fold Increase in MHC Class I Expression ([7]; +IFNg 100 ng/ml): 4 fold
Maximal Fold Increase in MHC Class I Expression ([7]; −IFNg): 3 fold
Maximal Fold Increase in MHC Class I Expression ([8]; +IFNg 100 ng/ml): 2 fold
Maximal Fold Increase in MHC Class I Expression ([8]; −IFNg): 1.5 fold
Maximal Fold Increase in MHC Class I Expression ([9]; +IFNg 100 ng/ml): 1.5 fold
Maximal Fold Increase in MHC Class I Expression ([9]; −IFNg): 0 fold
Maximal Fold Increase in MHC Class I Expression ([10]; +IFNg 100 ng/ml): 2 fold
Maximal Fold Increase in MHC Class I Expression ([10]; −IFNg): 0 fold
Maximal Fold Increase in MHC Class I Expression ([11]; +IFNg 100 ng/ml): 2 fold
Maximal Fold Increase in MHC Class I Expression ([11]; −IFNg): 2 fold
Cures (day 43) ([12]; retired mice): 0/12
% TGI (day 18) ([12]; retired mice (23 weeks of age), binimetinib 30 mg/kg, αPD-1 200 μg days 1, 4, 8 and 11): 25%
Deaths ([12]; retired mice, vehicle 9/12): 10/12
Maximum % BWL ([12]; retired mice, vehicle 15.1): 23.3%
Median Survival ([12]; retired mice, vehicle 21): 24
Cures (day 61) ([13]; B16F10 tumors): 0/10
Deaths ([13]; B16F10 tumors): 2/10
% TGI (day 13) ([13]; B16F10 tumors, C57BL/6 mice, binimetinib 30 mg/kg, anti-PD-1 100 μg): 59.0%
Median Survival ([13]; B16F10 tumors, vehicle 14): 19
Max % BWL ([13]; mouse, in vivo): 0.8%
Trough (day 15) [14]: 310 nM
